As a reminder, the solubility (kinetic) is the concentration staying in solution when a stock, usually in DMSO, is diluted into the medium.

The source of these data is article PMC11249626, “Fluorophore-Labeled Pyrrolones Targeting the Intracellular Allosteric Binding Site of the Chemokine Receptor CCR1” (ACS Pharmacology & Translational Science, 2024).

Converted amounts (≈) assume the structure as drawn. Read-outs that look alike come from different tables or passages of the source.

The target in data set [1] is T1, human chemokine receptor CCR1 (Homo sapiens, UniProt P32246).
T1 construct: expressed in transfected cells; host or cells: HEK293T, transient
T1 sequence (P32246 1-355): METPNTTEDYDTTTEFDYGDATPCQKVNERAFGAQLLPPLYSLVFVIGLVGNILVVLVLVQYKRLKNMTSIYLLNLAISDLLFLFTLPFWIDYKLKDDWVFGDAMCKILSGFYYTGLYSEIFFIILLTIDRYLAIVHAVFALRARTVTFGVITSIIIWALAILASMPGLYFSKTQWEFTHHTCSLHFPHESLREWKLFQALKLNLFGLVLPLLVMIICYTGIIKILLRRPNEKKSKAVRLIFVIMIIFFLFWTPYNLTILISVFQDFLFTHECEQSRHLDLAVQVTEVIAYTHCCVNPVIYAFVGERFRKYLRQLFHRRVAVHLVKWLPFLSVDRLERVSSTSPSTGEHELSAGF
In words: Cellular NanoBiT β-arrestin recruitment assay. Format: cell-based. The protocol: CCR1 and CCR2 was monitored using a nanoluciferase complementation -based assay (NanoBiT, Promega). 17-19 5 x 10^6 HEK293T cells were plated in 10 cm dishes and cultured for 24 h before transfection with vectors encoding for the human chemokine receptor CCR1 or CCR2 C-terminally fused with SmBiT and β-arrestin 2 N-terminally fused with LgBiT. 24 h after transfection cells were harvested, distributed into white 96-well plates (5 × 10^4 cells per well) and incubated for 1 h at 37 °C with compound 23 at concentrations ranging from 10 nM to 10 µM. The endogenous chemokine ligand CCL5 (3 nM, for CCR1) or CCL2 (10 nM, for CCR2) was then added, and luminescence generated upon nanoluciferase complementation in the presence of coelenterazine H was measured with a Mithras LB940 luminometer (Berthold Technologies) for 20 min. […]
Finally, the top 5% of the identified hits were subsequently docked to a homology model of CCR1 (vide infra). After visual examination of the obtained binding modes 24 hit compounds were identified for further investigation .
Molecular docking: For the docking studies in the course of our virtual screening campaign, the CCR1 protein was […]
27, 28 CCR1 structure was optimized using the Quickprep and structure preparation wizard in MOE 24 using CHARMM27 forcefield. The protein was saved in mol2 format and loaded in GOLD.25, 26 The amino acids defining the IABS were listed in a text file to define the docking cavity. 50 GA runs were performed for docking CCR2-RA-[R] (4-[R]) and SN_12 (43), with the generated solutions clustered based on their RMSD with the threshold set to 0.75 Å using the complete linkage method. Docking runs were performed using ChemScore. Flexibility of amino acids Lys63ICL1, Arg1313.50, Leu2406.36 and Arg3078.49 was taken in consideration in the docking runs, with conformational sampling of their side chains being done by the rotamer libraries implemented in GOLD.25, 26 For the docking studies with our ligand-linker conjugates (Figure S1), molecular ligand structures were geometry optimized as neutral molecules by means of Avogadro (Version 1.2.0)29 using the Universal Force Field (UFF) and the Steepest Decent Algorithm until convergence (ΔE = 0).
CCR113 was used for docking. The compounds were docked by means of AutoDock Vina 1.1.2.30, 31 An exhaustiveness value of 8 and a search space of 22 x 22 x 22 Å³ was applied around the unliganded intracellular allosteric binding site of CCR1. Twenty docking poses were generated for each ligand and inspected manually and according to the docking score.
Background: Recruitment of arrestin is a read-out of receptor activation apart from second messengers.

The nature of data set [2]: Kinetic solubility assay (nephelometry). Format: physicochemical. The following applies: aqueous buffer, kinetic from dmso stock; saline phosphate buffer pH 7.25, 1% DMSO, 25 °C, ± SD; read-out: kinetic solubility Skin.

Regarding `O=C(C1=C(O)C(=O)N(CCc2ccc(O)cc2)C1c1ccc(F)cc1)c1ccccc1` (racemic) [compound 23], the IC50 is 6 µM in data set [1] (absence of agonist, read-out: IC50 (CCR1), basal β-arrestin recruitment); 6.17 µM in data set [1] (absence of agonist, read-out: pIC50(CCR1), basal β-arrestin recruitment (converted)); 14.2 µM in data set [1] (in the presence of CCL5 (3 nM), HEK293T cells, read-out: IC50 (CCR1), β-arrestin recruitment). Also, in data set [1] (cellular NanoBiT assays), the “CCR1 over CCR2 selectivity, β-arrestin recruitment” value is on record as over 10 fold. Moreover, the solubility (kinetic) at 10 s in data set [2] was determined as 442 ± 27 µM (≈ 185 µg/mL).
